Test results from PubChem BioAssay AID2415 (Johns Hopkins Ion Channel Center, 2010).

Columns and labels:
Experiment in all cases: potentiation across KCNQ channel subtypes – cell-based, manual patch clamp, mode of action, selectivity assay for KCNQ2 potentiator project, late-stage follow-up (AID 2415)
[1] = target: Potassium voltage-gated channel subfamily KQT member 4 (Homo sapiens) (UniProt P56696); details: KCNQ channels in transfected CHO cells, manual whole-cell patch clamp current; measured here: KCNQ4 current ratio; at 10 µM; stronger effect = higher value
Potassium voltage-gated channel subfamily KQT member 4 (Homo sapiens), sequence (P56696 whole entry, looked up): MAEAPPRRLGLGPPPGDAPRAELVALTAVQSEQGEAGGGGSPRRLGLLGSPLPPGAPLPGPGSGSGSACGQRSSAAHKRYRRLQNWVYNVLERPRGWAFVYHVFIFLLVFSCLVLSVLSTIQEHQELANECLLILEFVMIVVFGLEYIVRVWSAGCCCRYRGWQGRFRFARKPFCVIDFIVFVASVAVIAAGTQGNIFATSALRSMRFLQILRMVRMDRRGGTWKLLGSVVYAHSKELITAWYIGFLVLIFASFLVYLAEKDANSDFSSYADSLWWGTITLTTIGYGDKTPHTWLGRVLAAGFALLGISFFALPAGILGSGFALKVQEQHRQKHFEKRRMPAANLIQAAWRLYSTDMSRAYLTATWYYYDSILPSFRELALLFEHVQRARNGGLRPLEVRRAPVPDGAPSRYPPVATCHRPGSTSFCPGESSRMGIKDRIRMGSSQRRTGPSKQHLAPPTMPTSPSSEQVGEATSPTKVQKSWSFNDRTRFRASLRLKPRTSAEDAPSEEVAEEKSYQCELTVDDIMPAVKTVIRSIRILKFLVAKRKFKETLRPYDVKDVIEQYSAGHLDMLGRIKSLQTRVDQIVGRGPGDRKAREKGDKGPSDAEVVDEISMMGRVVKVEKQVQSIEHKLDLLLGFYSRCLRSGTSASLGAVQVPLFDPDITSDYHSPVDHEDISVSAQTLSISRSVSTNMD

[2] = target: Potassium voltage-gated channel subfamily KQT member 2 (Rattus norvegicus) (UniProt O88943); details: KCNQ channels in transfected CHO cells, manual whole-cell patch clamp current; measured here: KCNQ2 current ratio; at 10 µM; stronger effect = higher value
Potassium voltage-gated channel subfamily KQT member 2 (Rattus norvegicus), sequence (O88943 whole entry, looked up): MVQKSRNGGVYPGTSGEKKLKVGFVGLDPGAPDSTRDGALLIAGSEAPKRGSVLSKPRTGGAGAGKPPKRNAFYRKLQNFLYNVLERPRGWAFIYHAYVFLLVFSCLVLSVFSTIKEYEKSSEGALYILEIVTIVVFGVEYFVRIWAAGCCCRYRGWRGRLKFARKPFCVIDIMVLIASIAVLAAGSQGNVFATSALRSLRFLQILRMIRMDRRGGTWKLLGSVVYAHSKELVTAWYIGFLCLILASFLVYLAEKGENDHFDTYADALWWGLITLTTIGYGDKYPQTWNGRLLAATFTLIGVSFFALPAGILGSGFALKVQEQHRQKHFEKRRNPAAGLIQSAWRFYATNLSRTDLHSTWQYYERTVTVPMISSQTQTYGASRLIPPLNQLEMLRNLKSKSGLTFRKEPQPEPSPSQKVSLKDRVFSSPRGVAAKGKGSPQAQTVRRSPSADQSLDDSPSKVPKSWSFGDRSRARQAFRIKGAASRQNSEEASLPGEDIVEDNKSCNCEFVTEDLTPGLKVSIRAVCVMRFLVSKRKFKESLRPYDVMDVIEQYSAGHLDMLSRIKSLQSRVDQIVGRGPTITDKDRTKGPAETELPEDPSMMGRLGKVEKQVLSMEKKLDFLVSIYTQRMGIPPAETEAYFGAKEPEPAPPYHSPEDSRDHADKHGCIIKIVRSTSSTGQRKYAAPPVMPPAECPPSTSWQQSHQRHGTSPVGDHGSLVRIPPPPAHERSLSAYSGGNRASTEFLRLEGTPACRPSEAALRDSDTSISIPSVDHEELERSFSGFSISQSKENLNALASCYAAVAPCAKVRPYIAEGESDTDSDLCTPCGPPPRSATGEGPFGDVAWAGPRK

[3] = target: Potassium voltage-gated channel subfamily KQT member 1 (Homo sapiens) (UniProt P51787); details: KCNQ channels in transfected CHO cells, manual whole-cell patch clamp current, at 10 µM
Potassium voltage-gated channel subfamily KQT member 1 (Homo sapiens), sequence (P51787 whole entry, looked up): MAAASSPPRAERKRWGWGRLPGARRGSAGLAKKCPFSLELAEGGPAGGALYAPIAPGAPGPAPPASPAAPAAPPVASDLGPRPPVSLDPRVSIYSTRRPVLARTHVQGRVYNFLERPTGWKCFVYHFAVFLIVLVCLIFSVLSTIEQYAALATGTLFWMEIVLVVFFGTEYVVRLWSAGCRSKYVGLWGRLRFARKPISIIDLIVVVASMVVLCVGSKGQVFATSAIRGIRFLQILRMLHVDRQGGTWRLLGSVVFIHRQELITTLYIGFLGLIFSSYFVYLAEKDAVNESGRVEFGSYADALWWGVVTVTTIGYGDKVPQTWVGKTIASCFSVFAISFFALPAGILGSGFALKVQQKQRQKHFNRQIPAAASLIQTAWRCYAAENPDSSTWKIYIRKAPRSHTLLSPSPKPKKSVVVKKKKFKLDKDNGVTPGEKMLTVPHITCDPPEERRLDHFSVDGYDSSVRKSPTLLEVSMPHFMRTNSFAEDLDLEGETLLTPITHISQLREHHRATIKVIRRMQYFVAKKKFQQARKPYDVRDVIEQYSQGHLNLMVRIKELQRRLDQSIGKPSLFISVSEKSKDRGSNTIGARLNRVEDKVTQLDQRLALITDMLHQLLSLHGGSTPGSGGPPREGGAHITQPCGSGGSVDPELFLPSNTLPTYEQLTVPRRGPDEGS

[4] = target: Potassium voltage-gated channel subfamily KQT member 3 (Rattus norvegicus) (UniProt O88944); details: KCNQ channels in transfected CHO cells, manual whole-cell patch clamp current; measured here: KCNQ3 current ratio; at 10 µM; stronger effect = higher value
Potassium voltage-gated channel subfamily KQT member 3 (Rattus norvegicus), sequence (O88944 whole entry, looked up): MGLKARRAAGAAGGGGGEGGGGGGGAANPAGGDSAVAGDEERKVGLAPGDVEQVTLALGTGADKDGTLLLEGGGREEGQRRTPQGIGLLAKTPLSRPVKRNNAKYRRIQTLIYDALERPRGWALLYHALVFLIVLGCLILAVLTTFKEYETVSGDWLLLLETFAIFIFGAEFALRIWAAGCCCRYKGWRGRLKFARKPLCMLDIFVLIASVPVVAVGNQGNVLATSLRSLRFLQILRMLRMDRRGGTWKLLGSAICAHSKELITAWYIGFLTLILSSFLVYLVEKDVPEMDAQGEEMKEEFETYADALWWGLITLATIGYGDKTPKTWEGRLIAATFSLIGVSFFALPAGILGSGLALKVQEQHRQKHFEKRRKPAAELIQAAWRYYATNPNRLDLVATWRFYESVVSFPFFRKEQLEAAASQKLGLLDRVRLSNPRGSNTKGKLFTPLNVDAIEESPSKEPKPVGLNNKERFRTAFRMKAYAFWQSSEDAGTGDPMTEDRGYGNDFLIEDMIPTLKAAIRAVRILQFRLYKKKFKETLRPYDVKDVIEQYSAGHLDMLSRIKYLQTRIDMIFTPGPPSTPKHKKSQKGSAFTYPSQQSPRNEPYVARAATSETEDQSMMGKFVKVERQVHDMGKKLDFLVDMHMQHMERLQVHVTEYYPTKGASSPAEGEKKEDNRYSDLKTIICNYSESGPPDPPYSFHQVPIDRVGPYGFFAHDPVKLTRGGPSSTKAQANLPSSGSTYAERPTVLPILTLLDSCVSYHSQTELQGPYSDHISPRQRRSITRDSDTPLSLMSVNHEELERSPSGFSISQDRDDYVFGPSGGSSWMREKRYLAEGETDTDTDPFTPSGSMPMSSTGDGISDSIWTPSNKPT

[5] = target: Potassium voltage-gated channel subfamily KQT member 5 (Homo sapiens) (UniProt Q9NR82); details: KCNQ channels in transfected CHO cells, manual whole-cell patch clamp current; measured here: KCNQ5 current ratio; at 10 µM; stronger effect = higher value
Potassium voltage-gated channel subfamily KQT member 5 (Homo sapiens), sequence (Q9NR82 whole entry, looked up): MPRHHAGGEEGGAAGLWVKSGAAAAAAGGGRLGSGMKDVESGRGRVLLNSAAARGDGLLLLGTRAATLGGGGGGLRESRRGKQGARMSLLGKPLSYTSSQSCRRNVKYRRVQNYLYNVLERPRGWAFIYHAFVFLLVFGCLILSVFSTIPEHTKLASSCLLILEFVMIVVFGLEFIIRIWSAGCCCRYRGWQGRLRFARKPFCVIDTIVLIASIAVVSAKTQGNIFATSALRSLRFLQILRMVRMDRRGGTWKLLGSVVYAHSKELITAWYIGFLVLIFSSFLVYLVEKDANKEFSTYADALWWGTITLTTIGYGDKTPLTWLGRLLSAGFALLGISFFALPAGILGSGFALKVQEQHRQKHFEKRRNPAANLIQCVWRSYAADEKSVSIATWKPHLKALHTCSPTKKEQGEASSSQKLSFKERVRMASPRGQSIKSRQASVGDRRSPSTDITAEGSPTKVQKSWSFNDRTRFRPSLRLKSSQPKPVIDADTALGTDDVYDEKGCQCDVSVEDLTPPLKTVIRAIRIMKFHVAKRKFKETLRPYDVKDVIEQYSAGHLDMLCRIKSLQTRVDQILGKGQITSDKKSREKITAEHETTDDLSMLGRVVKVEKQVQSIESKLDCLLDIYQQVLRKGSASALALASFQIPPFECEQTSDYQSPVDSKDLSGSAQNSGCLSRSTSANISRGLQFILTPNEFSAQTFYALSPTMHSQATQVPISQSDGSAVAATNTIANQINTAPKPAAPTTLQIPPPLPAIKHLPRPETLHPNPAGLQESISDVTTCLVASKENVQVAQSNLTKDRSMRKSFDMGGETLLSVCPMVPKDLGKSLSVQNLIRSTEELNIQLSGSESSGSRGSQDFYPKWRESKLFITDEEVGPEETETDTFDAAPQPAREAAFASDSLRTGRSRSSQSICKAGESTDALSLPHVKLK

For `O=C(Nc1ccc(Cl)nc1)c1ccc(F)cc1`, the current ratio I/I0 [1] was 2.4, the current ratio I/I0 [2] was 1.9 and the current ratio I/I0 ([3]; stronger effect = higher value) was 0.9. The deactivation tau ([3]; measured here: KCNQ2 deactivation time constant, stronger effect = higher value) was 51.8 ms, the V1/2 ([3]; measured here: KCNQ2 half activation voltage, stronger effect = lower value) was -16.6 mV and the current ratio I/I0 [4] was 1. For the same molecule, the current ratio I/I0 [5] was 3.5.
